Consider 2 compounds from paper PMC11378298 (ACS Chemical Neuroscience, 2024).

Each structure is given as a SMILES string.

For one data set, the target named is CYP2C9 (Homo sapiens, UniProt P11712). Conditions: for CYP2C9 activity at 0.1 µM / CYP2C9 activity at 1 µM / CYP2C9 activity at 10 µM / CYP2C9 activity at 25 µM: ± SD. The text has this:
(§1) Interactions with cytochrome enzymes are significant contributors to drug–drug interactions (DDIs), a crucial concern for patients who are on multiple medications. We determined the compounds’ influence on the most important CYP isoforms 3A4, 2D6, and 2C9, using the CYP450 inhibition luminescence assay from Promega (for details see Figures S23–S25 and Table S11 in the SI).
(§2) All protocols used for the evaluation of drug-like properties (ADME-To parameters) were described in our previous works.[58],[89] Precoated PAMPA Plate System Gentest was obtained from Corning, (Tewksbury, MA, USA). The metabolic stability assay was performed on human liver microsomes (HLMs, Sigma-Aldrich, St. Louis, MO, USA). The assays with microsomes were supported by MetaSite 6.0.1 software (Molecular Discovery Ltd. Hertfordshire, UK). To predict potential drug–drug interactions (DDIs) the influence on CYP3A4, CYP2D6, and CYP2C9 were carried with use of respective P450-Glo kit (Promega, Madison, WI, USA). The luminescence signal and absorbance were measured by using a microplate reader EnSpire PerkinElmer (Waltham, MA, USA). The LC/MS/MS analyses used in PAMPA and the assays with use of HLMs were obtained on Waters ACQUITY TQD system (Waters, Milford, CT, USA). […] Statistical significances and IC50 values were calculated by Graph Pad Prism 9 software. […]

For the next data set, the target named is CYP2D6 (Homo sapiens, UniProt P10635). Conditions: for CYP2D6 activity at 0.1 µM / CYP2D6 activity at 1 µM / CYP2D6 activity at 10 µM / CYP2D6 activity at 25 µM: ± SD.
Text: as §1, §2

A further data set has as its target CYP3A4 (Homo sapiens, UniProt P08684). Conditions: for CYP3A4 activity at 0.1 µM / CYP3A4 activity at 1 µM / CYP3A4 activity at 10 µM / CYP3A4 activity at 25 µM: ± SD.
Text: as §1, §2

The nature of data set [1]: Cytotoxicity in BV-2 cells (PrestoBlue). Conditions: mouse, BV-2 microglial cells. The procedure:
(§3) The compounds were tested at 5 concentrations (0.1, 1, 10, 50, and 100 μM).
Mouse microglial cells (BV-2) were a generous gift from Professor Bozena Kaminska-Kaczmarek of the Laboratory of Molecular Neurobiology, Neurobiology Center, Nencki Institute of Experimental Biology, Polish Academy of Sciences, Warsaw, Poland. Cells were cultured in Dulbecco’s modified Eagle’s Medium-high glucose (DMEM, Glutamax Thermo Fisher) supplemented with 10% heat-inactivated fetal bovine serum (Thermo Fisher), 100 IU/mL penicillin (Merck) and 100 μg/mL streptomycin (Merck). Cells were cultured in flasks (area 175 cm^2, Nunc), and incubated at 37 °C, 5% CO2. To evaluate the level of NO, IL-6, and TNF-α and the effectiveness of the compounds tested, BV-2 microglia cells were cultured in a 96-well culture plate (5 × 10^4 cells per well, Falcon). For the measurement of cell viability and cell membrane damage, cells were placed in a 96-well culture plate (2 × 10^4 cells per well, Falcon). Before the tests, cells were grown for 24 h in the incubator (37 °C, 5% CO2).
(§4) Cell viability was evaluated using the PrestoBlue reagent (ThermoFisher), according to the manufacturer’s procedures.[87] Following 24 h of incubation with the tested molecule, PrestoBlue reagent was added to a microplate well in an amount equal to one-tenth of the remaining medium volume. The resulting mixture was incubated for 15 min at 37 °C, and the fluorescence intensity (EX 530 nm; EM 580 nm) was measured in the plate reader POLARstar Omega, (BMG Labtech).

The target of data set [2] is T1, GSK-3β (Homo sapiens, UniProt P49841). Description: Kinetics of GSK-3β inhibition (ADP-Glo, varied ATP). The class given is biochemical. Further details: purchased Promega. The text has this: Each data point was collected in triplicate.
Kinetics of GSK-3β inhibition by compound 36
diverse ATP concentrations to determine the mechanism of enzyme - inhibitor interaction. The
(1 picture or pasted object on this page, not shown here) […]

The next data set concerns the target T2, CDK4/cyclinD3 (Homo sapiens, UniProt P11802).
T2 construct: purchased Eurofins (KinaseProfiler service)
Description: Kinase selectivity, radiometric [Km ATP] KinaseProfiler. The class given is biochemical. The procedure: (§5) We selected those kinases with the greatest potential for interaction based on structural homology, as indicated by the ChemPartner panel.
(§6) Figure 7 Kinase selectivity for compound 36. Data are presented as percent of kinases’ activity in the presence of 1 μM of compound 36. Kinases’ panel (CMGC group, human enzymes): CDK1/cyclinB, CDK2/cyclinA, CDK4/cyclinD3, CDK6/cyclinD3, CDK7/cyclinH/MAT1, CDK9/cyclinT1, DYRK1A, DYRK1B, GSK-3α, GSK-3β, JNK2α2, JNK3, MAPK1, MAPK2, SAPK2a(T106M), SAPK2b, SAPK3.
(§7) Selectivity studies were performed at Eurofins in Kinase Enzymatic Radiometric [Km ATP]
(§8) Kinase Profiler Lead Hunter Assay. The percentage of enzymatic activity was measured at the
(§9) concentration of 1 µM of compound 36 in duplicate for 17 selected kinases.
(§10) Table S12. Inhibitory activity of compound 36 against selected kinases.
(§11) *Where n = 2, the value reported here is actually range / √ 2.

The next data set addresses T3, CDK1/cyclinB (Homo sapiens, UniProt P06493).
T3 construct: purchased Eurofins (KinaseProfiler service)
Described as above. It counts as biochemical. The procedure:
as §5, §6, §7, §8, §9, §10, §11

For another data set, the target named is T4, JNK2α2 (Homo sapiens, UniProt P45984).
T4 construct: purchased Eurofins (KinaseProfiler service)
Described as above. The class given is biochemical. As to the method:
as §5, §6, §7, §8, §9, §10, §11

A further data set addresses T5, CDK9/cyclin T1 (Homo sapiens, UniProt P50750).
T5 construct: purchased Eurofins (KinaseProfiler service)
The description is as above. It counts as biochemical. As to the method: as §5, §6, §7, §8, §9, §10, §11

For the next data set, the system named is HT-22 cells. Description: Cytotoxicity in HT-22 cells (PrestoBlue). Conditions: whole range of concentrations 0.1–100 μM. The procedure: as §3
Mouse Hippocampal Neuronal Cell Line (HT-22) was a generous gift from Dr Bartosz Pomierny of the Department of Biochemical Toxicology, Jagiellonian University Medical College, Krakow, Poland. Cells were cultured in Dulbecco’s modified Eagle’s Medium—high glucose (DMEM, Glutamax Thermo Fisher) supplemented with 10% heat-inactivated fetal bovine serum (Thermo Fisher), 100 IU/mL penicillin (Merck) and 100 μg/mL streptomycin (Merck). Cells were cultured in flasks (area 175 cm^2, Nunc), and incubated at 37 °C, 5% CO2. For the measurement of cell viability and neuroprotective effect against okadaic acid cells were placed in a 96-well culture plate (2 × 10^4 cells per well, Falcon). Before the tests, cells were grown for 24 h in the incubator (37 °C, 5% CO2).
as §4

Data set [3] addresses T1, GSK-3β. Put plainly: biochemical. As to the method: as §5, §6, §7, §8, §9, §10, §11

CYP2C9, sequence (P11712 whole entry, canonical isoform): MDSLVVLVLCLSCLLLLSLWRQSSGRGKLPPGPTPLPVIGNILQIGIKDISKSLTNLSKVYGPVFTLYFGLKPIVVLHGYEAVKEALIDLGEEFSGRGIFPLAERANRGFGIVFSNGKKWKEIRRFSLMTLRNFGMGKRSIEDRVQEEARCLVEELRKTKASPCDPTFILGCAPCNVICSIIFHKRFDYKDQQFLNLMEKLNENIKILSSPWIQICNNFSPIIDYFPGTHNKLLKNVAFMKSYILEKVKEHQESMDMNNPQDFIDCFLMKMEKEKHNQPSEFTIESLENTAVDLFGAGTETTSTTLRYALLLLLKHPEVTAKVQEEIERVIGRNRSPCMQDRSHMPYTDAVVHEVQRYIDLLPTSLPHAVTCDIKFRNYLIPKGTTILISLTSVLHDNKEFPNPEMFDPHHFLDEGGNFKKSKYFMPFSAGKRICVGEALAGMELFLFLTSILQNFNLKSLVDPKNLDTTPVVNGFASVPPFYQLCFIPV
CYP3A4, sequence (P08684 whole entry): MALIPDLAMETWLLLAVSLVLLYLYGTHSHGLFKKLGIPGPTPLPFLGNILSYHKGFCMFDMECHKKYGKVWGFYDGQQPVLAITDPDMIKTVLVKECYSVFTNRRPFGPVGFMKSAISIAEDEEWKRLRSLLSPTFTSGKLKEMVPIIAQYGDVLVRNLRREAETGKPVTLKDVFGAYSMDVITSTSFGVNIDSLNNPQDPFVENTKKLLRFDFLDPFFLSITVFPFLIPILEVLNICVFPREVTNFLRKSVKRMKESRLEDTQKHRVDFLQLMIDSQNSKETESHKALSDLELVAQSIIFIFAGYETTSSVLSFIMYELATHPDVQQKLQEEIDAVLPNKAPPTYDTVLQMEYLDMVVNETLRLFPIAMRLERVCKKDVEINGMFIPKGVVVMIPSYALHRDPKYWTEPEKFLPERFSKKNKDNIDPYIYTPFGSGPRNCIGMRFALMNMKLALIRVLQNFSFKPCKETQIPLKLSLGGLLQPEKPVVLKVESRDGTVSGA
T1 sequence (P49841 whole entry): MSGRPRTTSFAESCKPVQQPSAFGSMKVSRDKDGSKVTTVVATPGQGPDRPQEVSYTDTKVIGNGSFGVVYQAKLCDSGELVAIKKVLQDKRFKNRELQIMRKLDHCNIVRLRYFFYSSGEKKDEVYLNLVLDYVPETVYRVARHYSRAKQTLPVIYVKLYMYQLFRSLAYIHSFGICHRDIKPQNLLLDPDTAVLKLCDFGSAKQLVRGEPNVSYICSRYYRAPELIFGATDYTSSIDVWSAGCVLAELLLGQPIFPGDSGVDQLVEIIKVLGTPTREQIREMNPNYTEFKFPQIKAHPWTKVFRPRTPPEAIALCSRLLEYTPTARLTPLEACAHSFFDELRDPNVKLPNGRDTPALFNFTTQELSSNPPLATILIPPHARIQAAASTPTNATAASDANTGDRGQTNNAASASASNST
CYP2D6, sequence (P10635 whole entry): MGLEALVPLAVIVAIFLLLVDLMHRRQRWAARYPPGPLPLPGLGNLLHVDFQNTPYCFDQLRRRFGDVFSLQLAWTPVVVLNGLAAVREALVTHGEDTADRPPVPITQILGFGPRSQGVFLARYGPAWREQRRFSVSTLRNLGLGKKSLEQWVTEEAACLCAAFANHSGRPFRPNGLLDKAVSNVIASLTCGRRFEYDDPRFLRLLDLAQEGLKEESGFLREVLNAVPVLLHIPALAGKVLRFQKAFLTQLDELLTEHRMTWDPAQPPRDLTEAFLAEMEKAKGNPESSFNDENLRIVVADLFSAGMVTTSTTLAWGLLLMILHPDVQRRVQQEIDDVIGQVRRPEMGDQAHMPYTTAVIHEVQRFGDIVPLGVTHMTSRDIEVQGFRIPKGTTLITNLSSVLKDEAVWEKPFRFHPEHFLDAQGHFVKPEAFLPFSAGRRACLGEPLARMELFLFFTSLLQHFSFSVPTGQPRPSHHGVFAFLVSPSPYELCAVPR
T4 sequence (P45984 whole entry): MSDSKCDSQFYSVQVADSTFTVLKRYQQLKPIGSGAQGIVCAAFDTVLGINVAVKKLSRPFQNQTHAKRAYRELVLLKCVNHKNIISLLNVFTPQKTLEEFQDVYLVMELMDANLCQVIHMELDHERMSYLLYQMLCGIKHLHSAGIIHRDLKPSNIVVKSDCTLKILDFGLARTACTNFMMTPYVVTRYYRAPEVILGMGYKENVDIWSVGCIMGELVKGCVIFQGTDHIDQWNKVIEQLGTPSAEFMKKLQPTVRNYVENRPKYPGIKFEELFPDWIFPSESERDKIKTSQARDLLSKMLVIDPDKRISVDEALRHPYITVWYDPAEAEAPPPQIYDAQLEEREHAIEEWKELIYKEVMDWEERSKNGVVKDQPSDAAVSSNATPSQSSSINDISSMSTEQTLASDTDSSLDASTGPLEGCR
T2 sequence (P11802 whole entry): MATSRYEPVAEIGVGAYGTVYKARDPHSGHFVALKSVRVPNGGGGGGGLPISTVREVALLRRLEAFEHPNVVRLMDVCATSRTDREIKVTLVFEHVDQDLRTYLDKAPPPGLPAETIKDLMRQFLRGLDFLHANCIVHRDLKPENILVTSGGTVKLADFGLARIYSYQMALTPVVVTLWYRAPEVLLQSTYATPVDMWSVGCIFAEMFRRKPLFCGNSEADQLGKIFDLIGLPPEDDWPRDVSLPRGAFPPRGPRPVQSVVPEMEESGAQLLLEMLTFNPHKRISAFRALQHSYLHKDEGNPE
T2 sequence (P30281 whole entry partner): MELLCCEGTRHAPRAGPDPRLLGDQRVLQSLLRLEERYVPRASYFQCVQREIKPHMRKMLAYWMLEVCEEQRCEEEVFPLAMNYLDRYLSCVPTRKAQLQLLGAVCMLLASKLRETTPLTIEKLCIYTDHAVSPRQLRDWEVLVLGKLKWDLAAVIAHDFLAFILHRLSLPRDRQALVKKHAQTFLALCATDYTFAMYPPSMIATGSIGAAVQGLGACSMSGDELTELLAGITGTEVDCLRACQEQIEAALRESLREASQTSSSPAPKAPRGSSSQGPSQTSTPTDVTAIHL
T5 sequence (P50750 whole entry): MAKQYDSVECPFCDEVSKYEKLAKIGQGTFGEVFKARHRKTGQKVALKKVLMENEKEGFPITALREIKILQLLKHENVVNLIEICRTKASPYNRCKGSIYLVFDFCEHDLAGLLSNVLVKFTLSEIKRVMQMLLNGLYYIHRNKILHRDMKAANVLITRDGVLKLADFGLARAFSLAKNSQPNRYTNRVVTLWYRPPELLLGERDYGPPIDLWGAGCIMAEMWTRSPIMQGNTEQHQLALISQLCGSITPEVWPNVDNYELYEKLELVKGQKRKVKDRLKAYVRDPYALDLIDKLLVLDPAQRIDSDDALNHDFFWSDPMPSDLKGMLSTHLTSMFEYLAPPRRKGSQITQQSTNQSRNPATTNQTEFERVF
T5 sequence (O60563 whole entry partner): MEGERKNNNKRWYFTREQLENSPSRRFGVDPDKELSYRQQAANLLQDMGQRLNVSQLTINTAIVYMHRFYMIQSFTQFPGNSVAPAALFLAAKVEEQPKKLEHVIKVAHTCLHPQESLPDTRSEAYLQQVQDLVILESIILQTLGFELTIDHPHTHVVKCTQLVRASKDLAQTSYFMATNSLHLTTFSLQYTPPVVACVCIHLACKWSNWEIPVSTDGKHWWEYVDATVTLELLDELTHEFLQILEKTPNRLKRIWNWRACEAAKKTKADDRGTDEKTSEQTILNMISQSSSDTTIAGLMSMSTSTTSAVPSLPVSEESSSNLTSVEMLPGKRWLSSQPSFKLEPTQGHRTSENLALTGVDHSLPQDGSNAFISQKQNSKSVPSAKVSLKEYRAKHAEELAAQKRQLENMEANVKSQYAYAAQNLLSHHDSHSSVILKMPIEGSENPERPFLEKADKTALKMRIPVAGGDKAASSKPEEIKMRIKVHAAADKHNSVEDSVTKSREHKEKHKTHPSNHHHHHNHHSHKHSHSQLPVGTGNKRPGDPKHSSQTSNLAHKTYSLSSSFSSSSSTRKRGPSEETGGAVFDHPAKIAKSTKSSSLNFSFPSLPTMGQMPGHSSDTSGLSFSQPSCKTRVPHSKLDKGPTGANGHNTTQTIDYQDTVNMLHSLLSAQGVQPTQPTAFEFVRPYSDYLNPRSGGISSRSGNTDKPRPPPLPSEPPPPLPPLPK
T3 sequence (P06493 whole entry): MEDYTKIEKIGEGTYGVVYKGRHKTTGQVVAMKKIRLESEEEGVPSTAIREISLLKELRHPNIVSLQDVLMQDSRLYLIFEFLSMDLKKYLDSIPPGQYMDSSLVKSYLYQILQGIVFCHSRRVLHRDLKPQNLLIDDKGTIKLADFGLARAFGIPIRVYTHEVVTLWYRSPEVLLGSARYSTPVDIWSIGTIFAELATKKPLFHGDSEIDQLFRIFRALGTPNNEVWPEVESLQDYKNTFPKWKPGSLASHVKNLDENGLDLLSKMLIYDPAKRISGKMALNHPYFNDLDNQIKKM
T3 sequence (P14635 whole entry partner): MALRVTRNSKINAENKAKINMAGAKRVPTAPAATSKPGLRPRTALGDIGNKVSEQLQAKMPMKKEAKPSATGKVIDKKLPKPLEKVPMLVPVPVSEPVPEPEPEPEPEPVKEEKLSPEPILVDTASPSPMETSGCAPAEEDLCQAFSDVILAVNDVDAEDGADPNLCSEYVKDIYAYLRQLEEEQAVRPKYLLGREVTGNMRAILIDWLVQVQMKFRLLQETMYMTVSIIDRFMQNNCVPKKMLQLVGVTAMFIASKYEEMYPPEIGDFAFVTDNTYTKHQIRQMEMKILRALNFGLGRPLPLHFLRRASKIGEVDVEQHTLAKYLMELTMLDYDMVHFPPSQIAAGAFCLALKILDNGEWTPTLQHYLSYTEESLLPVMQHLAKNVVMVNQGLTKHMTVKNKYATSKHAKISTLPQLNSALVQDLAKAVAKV

`NC(=O)N1CC=C(c2ccnc(NC(=O)C3CC3)c2)C1` [Compound 11, 3-(2-(Cyclopropanecarboxamido)pyridin-4-yl)-2,5-dihydro-1H-pyrrole-1-carboxamide]: on CYP2C9, the “effect on CYP2C9” value was “inhibitory effect”, the “CYP2C9 activity at 0.1 µM” value is recorded as 103.9 ± 7.0 % of control, the “CYP2C9 activity at 1 µM” value is recorded as 105.2 ± 7.4 % of control and the “CYP2C9 activity at 10 µM” value is listed as 89.8 ± 4.7 % of control. Besides, on CYP2C9, the “CYP2C9 activity at 25 µM” value is on record as 69.7 ±3.04 % of control. Moreover, on CYP2D6, the “CYP2D6 activity at 0.1 µM” value is 91.2 ± 1.7 % of control, the “CYP2D6 activity at 1 µM” value is recorded as 93.0 ± 6.0 % of control, the “CYP2D6 activity at 10 µM” value is listed as 95.2 ± 6.2 % of control and the “CYP2D6 activity at 25 µM” value is 97.4 ± 14.8 % of control. Moreover, the “effect on CYP2D6” value on CYP2D6 (any tested concentration) is “no effect”. At CYP3A4, the “effect on CYP3A4” value is reported as “inhibitory effect”, the “CYP3A4 activity at 0.1 µM” value is 103.8 ± 5.9 % of control, the “CYP3A4 activity at 1 µM” value is recorded as 100.1 ± 17.6 % of control and the “CYP3A4 activity at 10 µM” value is given as 94.2 ± 17.5 % of control. In addition, the “CYP3A4 activity at 25 µM” value at CYP3A4 was 76.4 ± 2.9 % of control. In data set [1], this compound had an IC50 at 24 h of 23.4 ± 1.7 µM.

As to `O=C(Nc1cc(-c2ccc(-c3ncon3)s2)ccn1)C1CC1` [Compound 36, N-(4-(5-(1,2,4-Oxadiazol-3-yl)thiophen-2-yl)pyridin-2-yl)cyclopropanecarboxamide], at CYP2C9, the “effect on CYP2C9” value is “inhibitory effect”, the “CYP2C9 activity at 0.1 µM” value is 109.5 ± 17.0 % of control, the “CYP2C9 activity at 1 µM” value is 114.1 ± 14.9 % of control and the “CYP2C9 activity at 10 µM” value is recorded as 95.2 ± 7.5 % of control. Moreover, the “CYP2C9 activity at 25 µM” value on CYP2C9 is 59.8 ± 11.5 % of control. Also, the “interactions with CYP isoform 2C9” value on CYP2C9 (up to 25 μM) is “lacked significant interactions”. Also, on CYP2D6, the “CYP2D6 activity at 0.1 µM” value is reported as 98.4 ± 10.8 % of control, the “CYP2D6 activity at 1 µM” value is given as 98.1 ± 12.7 % of control, the “CYP2D6 activity at 10 µM” value was 100.4 ± 20.8 % of control and the “CYP2D6 activity at 25 µM” value is reported as 102.8 ± 15.0 % of control. Moreover, at CYP3A4, the “effect on CYP3A4” value is “inhibitory effect”, the “CYP3A4 activity at 0.1 µM” value is given as 104.8 ± 3.4 % of control, the “CYP3A4 activity at 1 µM” value is 103.6 ± 11.0 % of control and the “CYP3A4 activity at 10 µM” value is on record as 84.6 ± 15.1 % of control. Moreover, on CYP3A4, the “CYP3A4 activity at 25 µM” value was 65.3 ± 11.9 % of control. The compound further registered a Ki on GSK-3β [2] of 60.3 nM. Moreover, the type of inhibition entry on GSK-3β [2] (Lineweaver–Burk and Cornish–Bowden plots, varied ATP) is given as “ATP-competitive”. On CDK4/cyclinD3, this compound displayed an inhibition at 1 µM of under 50%. Moreover, the “% of enzyme activity at 1μM of 36 ±SD, CDK4/cyclinD3” value on CDK4/cyclinD3 (duplicate) was found to be 97±9%. This compound also had an inhibition at 1 µM against CDK1/cyclinB of 58%. Further, at CDK1/cyclinB (duplicate), the “% of enzyme activity at 1μM of 36 ±SD, CDK1/cyclinB” value is listed as 42±4%. This compound also yielded an inhibition at 1 µM against JNK2α2 of under 50%. Further, the “% of enzyme activity at 1μM of 36 ±SD, JNK2α2” value at JNK2α2 (duplicate) is given as 100±7%. The compound also registered an inhibition at 1 µM against CDK9/cyclin T1 of 84%. Moreover, the “% of enzyme activity at 1μM of 36 ±SD, CDK9/cyclin T1” value on CDK9/cyclin T1 (duplicate) was found to be 16±2%. Further, in the data set on HT-22 cells, the “cell viability in HT-22 cells” value is “No significant decrease in cell viability”. Besides, the “% of enzyme activity at 1μM of 36 ±SD, GSK-3β” value at GSK-3β [3] (1 μM, duplicate) is recorded as 5±1%. Further, the inhibition at 1 µM on GSK-3β [3] (read-out: inhibition of GSK-3β) is 92%. This compound had an IC50 at 24 h in [1] of 89.3 ± 4.9 µM.

The IC50 is the midpoint of a concentration-inhibition curve. A high value points to lower potency. Broadly, the Ki is the dissociation constant of the complex between target and ligand, obtained from inhibition or displacement. Low readings indicate higher affinity, high ones lower affinity. Broadly, the inhibition is the relative decrease from the control value, in per cent.
